Assay [1] concerns the target CrufCSP1. In words: Fluorescence competitive binding assay with 1-NPN as probe. On the set-up: species or system Cotesia ruficrus. The following applies: for IC50: recombinant CrufCSP1 2 μM, ligand 0 to 30 μM, tris-HCl pH 7.4. The method, then: (§1) The binding affinity between CrufCSP1 and the selected volatile compounds was determined using an F-7000 fluorescence spectrophotometer (Hitachi, Tokyo, Japan). N-phenyl-1-naphthylamine (1-NPN), a fluorescence probe, was used to assess the binding affinity. A total of 24 volatiles, i.e., alcohols (heptanol, undecanol, tetradecanol, cis-3-hexen-1-ol, 1,14-tetradecanediol, 2-hexanol, phytol, and linalool), aldehydes (hexanal, heptanal, octanal, nonanal, decanal, dodecanal, pentadecanal, benzaldehyde, p-methyl benzaldehyde, and trans-2-hexenal), and others (2-hydroxy-5-methylacetophenone, 2-heptanone, palmitic acid, N,N-dimethylcaprylamide, DMNT, and cis-3-hexenyl acetate), were selected for the fluorescence binding assay with CrufCSP1. Of these compounds, our research group previously identified undecanol, tetradecanol, 2-hexanol, 1,14-tetradecanediol, phytol, dodecanal, pentadecanal, p-methyl benzaldehyde, palmitic acid, 2-hydroxy-5-methylacetophenone, and N,N-dimethylcaprylamide in the larvae of S. frugiperda. The remaining compounds were chosen based on previous studies that identified them as corn volatiles.
To prepare the tested chemicals, all were dissolved in chromatographic grade methanol to achieve a 100 mM solution, which was then stored at −20 °C. Before use, this solution was diluted to 1 mM. CrufCSP1 was dissolved in 20 mM of tris-HCl (pH 7.4) and then diluted to a 2 μM working solution. To ensure the binding affinity of 1-NPN to the protein, the CrufCSP1 solution was titrated with 1-NPN with a concentration range of 2 to 20 μM. For the fluorescence competitive binding assays, each ligand was added to a mixture containing CrufCSP1 (2 μM) and 1-NPN (2 μM) at concentrations ranging from 0 to 30 μM. The maximum fluorescence intensity was then recorded and plotted against the ligand concentration based on the average of the three repeats. The dissociation constant (Kd) for binding between CrufCSP1 and 1-NPN was calculated using the Scatchard linear regressive equation in the software GraphPad Prism 8.0 (GraphPad Software Inc., La Jolla, CA, USA). Additionally, the ligand-binding affinity (Ki) was calculated utilizing the following equation: Ki=[IC50]/(1+[1−NPN]/K1−NPN) where IC50 represents the maximum concentration at which the ligand replaces 50% of the 1 − NPN fluorescence, [1 − NPN] denotes the free concentration of 1-NPN, and K1-NPN represents the dissociation constant of the protein/1 − NPN complex.

Assay [2] addresses CrufCSP1. In words: Binding of fluorescent probe 1-NPN to recombinant CrufCSP1 (Scatchard plot). Details: species or system Cotesia ruficrus. Particulars: CrufCSP1 2 μM titrated with 1-NPN 2 to 20 μM, read-out: dissociation constant toward 1-NPN. The method, then: as §1, with “Of these compounds, our research group previously identified undecanol, tetradecanol, 2-hexanol, 1,14-tetradecanediol, phytol, dodecanal, pentadecanal, p-methyl benzaldehyde, palmitic acid, 2-hydroxy-5-methylacetophenone, and N,N-dimethylcaprylamide in the larvae of S. frugiperda. The remaining compounds were chosen based on previous studies that identified them as corn volatiles.” left out
To prepare the tested chemicals, all were dissolved in chromatographic grade methanol to achieve a 100 mM solution, which was then stored at −20 °C. […] For the fluorescence competitive binding assays, each ligand was added to a mixture containing CrufCSP1 (2 μM) and 1-NPN (2 μM) at concentrations ranging from 0 to 30 μM. The maximum fluorescence intensity was then recorded and plotted against the ligand concentration based on the average of the three repeats. […]

The mark [3] stands for this setting: calculated from IC50: Ki=[IC50]/(1+[1-NPN]/K1-NPN), CrufCSP1 2 μM, 1-NPN 2 μM.

Usually Ki stands for a measure of affinity in units of concentration, obtained from inhibition or displacement. The IC50 is the concentration that gives 50% inhibition.

Where two headings read alike, the source gives them in different places. Bounds are passed on as bounds.

With `OCCCCCCCCCCCCCCO` [1,14-Tetradecanediol], the Ki on CrufCSP1 [1] (setting [3]) was over 50 µM. Also, the IC50 on CrufCSP1 [1] (1-NPN 2 μM) was over 50 µM.

Take `c1ccc(Nc2cccc3ccccc23)cc1` [1-NPN, N-phenyl-1-naphthylamine]: at CrufCSP1 [2], the Kd came out at 7.67 µM.

`CCCCCC(C)=O` [2-Heptanone]: the Ki on CrufCSP1 [1] (setting [3]) is over 50 µM. The concentration for half-maximal inhibition (IC50) at CrufCSP1 [1] (1-NPN 2 μM) was over 50 µM.

`CCCCC(C)O` (centres unmarked) [2-Hexanol]: the Ki at CrufCSP1 [1] (setting [3]) is over 50 µM. Moreover, the IC50 at CrufCSP1 [1] (1-NPN 2 μM) was over 50 µM.

For `CC(=O)c1cc(C)ccc1O` [2-Hydroxy-5-methylacetophenone], the Ki at CrufCSP1 [1] (setting [3]) was 20 µM; on CrufCSP1 [1] (calculated from IC50: Ki=[IC50]/(1+[1-NPN]/K1-NPN), CrufCSP1 2 μM, 1-NPN 2 μM, listed as 2-hydroxy-5-methylacetophenone), under 20 µM. In addition, on CrufCSP1 [1] (1-NPN 2 μM), the IC50 was determined as 22.8 µM.

Consider `O=Cc1ccccc1` [Benzaldehyde], for which the figures for the Ki at CrufCSP1 [1] and at CrufCSP1 [1] (listed as benzaldehyde) were 15.2 µM and under 20 µM, respectively. The IC50 on CrufCSP1 [1] (1-NPN 2 μM) was determined as 17.4 µM.

On CrufCSP1 [1], `C=C/C=C(\C)CCC=C(C)C` [DMNT] returned a Ki of over 50 µM. At CrufCSP1 [1] (1-NPN 2 μM), the IC50 is over 50 µM.

As for `CCCCCCCCCC=O` [Decanal], on CrufCSP1 [1] (setting [3]), the Ki was 21.8 µM. Also, at CrufCSP1 [1] (1-NPN 2 μM), the IC50 came to 24.9 µM.

Take `CCCCCCCCCCCC=O` [Dodecanal]: on CrufCSP1 [1] (setting [3]), the Ki is 36 µM. For the same compound, at CrufCSP1 [1] (1-NPN 2 μM), the IC50 was 41.1 µM.

Regarding `CCCCCCC=O` [Heptanal], the Ki at CrufCSP1 [1] (setting [3]) was over 50 µM. The IC50 at CrufCSP1 [1] (1-NPN 2 μM) is over 50 µM.

As to `CCCCCCCO` [Heptanol], on CrufCSP1 [1] (setting [3]), the Ki was 27.7 µM. Moreover, on CrufCSP1 [1] (1-NPN 2 μM), the IC50 is 31.6 µM.

`CCCCCC=O` [Hexanal]: the Ki was 19.4 µM at CrufCSP1 [1] (setting [3]) and under 20 µM at CrufCSP1 [1] (calculated from IC50: Ki=[IC50]/(1+[1-NPN]/K1-NPN), CrufCSP1 2 μM, 1-NPN 2 μM, listed as hexanal). For the same compound, the IC50 at CrufCSP1 [1] (1-NPN 2 μM) is 22.1 µM.

With `C=CC(C)(O)CCC=C(C)C` (centres unmarked) [Linalool], the Ki is 19.8 µM on CrufCSP1 [1] (setting [3]) and under 20 µM on CrufCSP1 [1] (calculated from IC50: Ki=[IC50]/(1+[1-NPN]/K1-NPN), CrufCSP1 2 μM, 1-NPN 2 μM, listed as linalool). Further, the IC50 at CrufCSP1 [1] (1-NPN 2 μM) was 22.6 µM.

With `CCCCCCCC(=O)N(C)C` [N,N-Dimethylcaprylamide], the Ki at CrufCSP1 [1] (setting [3]) was 19.3 µM; on CrufCSP1 [1] (calculated from IC50: Ki=[IC50]/(1+[1-NPN]/K1-NPN), CrufCSP1 2 μM, 1-NPN 2 μM, listed as N,N-dimethylcaprylamide) it was under 20 µM. The IC50 at CrufCSP1 [1] (1-NPN 2 μM) was determined as 22 µM.

As for `CCCCCCCCC=O` [Nonanal], the Ki on CrufCSP1 [1] (setting [3]) is over 50 µM. In addition, the IC50 at CrufCSP1 [1] (1-NPN 2 μM) is over 50 µM.

Consider `CCCCCCCC=O` [Octanal], for which the Ki at CrufCSP1 [1] (setting [3]) is 15 µM; on CrufCSP1 [1] (calculated from IC50: Ki=[IC50]/(1+[1-NPN]/K1-NPN), CrufCSP1 2 μM, 1-NPN 2 μM, listed as octanal), under 20 µM. For the same compound, on CrufCSP1 [1] (1-NPN 2 μM), the IC50 came out at 17.2 µM.

`CCCCCCCCCCCCCCCC(=O)O` [Palmitic acid]: the Ki at CrufCSP1 [1] (setting [3]) is over 50 µM. At CrufCSP1 [1] (1-NPN 2 μM), the IC50 was over 50 µM.

On CrufCSP1 [1], `CCCCCCCCCCCCCCC=O` [Pentadecanal] yielded a Ki of 39 µM. At CrufCSP1 [1] (1-NPN 2 μM), the IC50 stood at 44.5 µM.

For `CCCCCCCCCCCCCCO` [Tetradecanol], the inhibitory constant (Ki) at CrufCSP1 [1] (setting [3]) was over 50 µM. Further, the IC50 on CrufCSP1 [1] (1-NPN 2 μM) was over 50 µM.

For the compound `CCCCCCCCCCCO` [Undecanol], the Ki at CrufCSP1 [1] (setting [3]) is over 50 µM. Besides, the IC50 at CrufCSP1 [1] (1-NPN 2 μM) is over 50 µM.

As for `CC/C=C\CCO` [cis-3-Hexen-1-ol], the Ki on CrufCSP1 [1] (setting [3]) is 24.7 µM. Besides, the 50% inhibitory concentration (IC50) on CrufCSP1 [1] (1-NPN 2 μM) is 28.2 µM.

As to `CC/C=C\CCOC(C)=O` [cis-3-Hexenyl acetate], the Ki on CrufCSP1 [1] (setting [3]) is 29.2 µM. Also, the IC50 on CrufCSP1 [1] (1-NPN 2 μM) was 33.4 µM.

At CrufCSP1 [1], `Cc1ccc(C=O)cc1` [p-Methyl benzaldehyde] gave a Ki of 40.3 µM. Moreover, at CrufCSP1 [1] (1-NPN 2 μM), the IC50 worked out at 46 µM.

As for `CCC/C=C/C=O` [trans-2-Hexenal], the Ki is 14.5 µM at CrufCSP1 [1] and under 20 µM at CrufCSP1 [1] (listed as trans-2-hexenal). Besides, on CrufCSP1 [1] (1-NPN 2 μM), the IC50 is 16.5 µM.

Take Phytol: on CrufCSP1 [1], the Ki was over 50 µM. Also, the IC50 on CrufCSP1 [1] (1-NPN 2 μM) was over 50 µM.

The values above are taken from article PMC10744196, “Characterization of CrufCSP1 and Its Potential Involvement in Host Location by Cotesia ruficrus (Hymenoptera: Braconidae), an Indigenous Parasitoid of Spodoptera frugiperda (Lepidoptera: Noctuidae) in China” (Insects, 2023).
